In brackets after ≈: the same amount, converted by molar mass. Several values for one entry are separate records, joined by “and”; a condition that tells them apart may be missing. Equal values may be shown once. Blank lines part the entries; values can stand above or below the compound they belong to.
What was measured:
Experiment in all cases: ≥ marks a high value that may be exact or a test limit, other limits are often not marked, values filed in µg/mL are converted to µM
[1] = system: Salmonella enterica subsp. enterica serovar Typhimurium ATCC 14028
[2] = system: Pseudomonas aeruginosa ATCC 13388
[3] = system: Klebsiella pneumoniae ATCC 10031
[4] = system: Escherichia coli ATCC 11219
[5] = system: Staphylococcus aureus ATCC 6538
[6] = system: Streptococcus sanguinis ATCC 10556
[7] = system: Streptococcus mutans UA159
[8] = system: Limosilactobacillus fermentum ATCC 9338
[9] = system: Enterococcus faecalis ATCC 29212
[10] = system: Streptococcus sobrinus 6715
[11] = system: Lactobacillus acidophilus ATCC 14931
[12] = system: Streptococcus salivarius ATCC 27945
[13] = system: Streptococcus salivarius ATCC 13419
[14] = system: Streptococcus gordonii DL1
[15] = system: Limosilactobacillus fermentum A1753
[16] = system: Actinomyces naeslundii ATCC 12104
[17] = system: Lacticaseibacillus casei ATCC 393
[18] = system: Lactobacillus acidophilus ATCC 53544
[19] = system: Streptococcus gordonii ATCC 35105
[20] = system: Streptococcus sanguinis JCM 5708
[21] = system: Escherichia coli DH5alpha
[22] = system: Bacillus subtilis DSM 347
[23] = system: Kocuria rhizophila DSM 348
[24] = system: Franconibacter helveticus DSM 18396
[25] = system: Bacillus subtilis KCTC 1918
[26] = system: Trichosporon beigelii KCTC 7707
[27] = system: Salmonella typhimurium KCTC 1926
[28] = system: Staphylococcus epidermidis KCTC 3096
[29] = system: Pseudomonas aeruginosa KCTC 1637
[30] = system: Candida albicans TIMM 1768
[31] = system: Staphylococcus aureus ATCC 25923
[32] = system: Salmonella enterica subsp. enterica serovar Typhi CMCC 50071
[33] = system: Streptococcus pneumoniae ATCC 49619
[34] = system: Shigella dysenteriae CMCC 51252
[35] = system: Ralstonia solanacearum ATCC 33192
[36] = system: Micrococcus luteus CMCC 28001
[37] = system: Bacillus subtilis CMCC 63501
[38] = system: Escherichia coli ATCC 25922
[39] = system: Bacillus subtilis KCTC 1998
[40] = system: Candida albicans KCTC 7270
[41] = system: Pseudomonas aeruginosa
[42] = system: Candida tropicalis KCTC 7221
[43] = system: Aspergillus flavus KCTC 6905
[44] = system: Candida krusei CCARM 14017
[45] = system: Fusarium solani KCTC 6326
[46] = system: Candida parapsilosis CCARM 14016
[47] = system: Fusarium verticillioides KCTC 6149
[48] = system: Staphylococcus aureus
[49] = system: Aspergillus fumigatus KCTC 6145
[50] = system: Fusarium oxysporum KCTC 16909
[51] = system: Trichophyton rubrum KCTC 6345
[52] = system: Pseudomonas aeruginosa ATCC 15692

Compound: CC[C@H](C)[C@H](NC(=O)CN)C(=O)N[C@@H](Cc1cnc[nH]1)C(=O)N[C@@H](CC(=O)O)C(=O)N[C@H](C(=O)N[C@@H](CC(C)C)C(=O)N[C@@H](CCCCN)C(=O)N[C@@H](Cc1ccc(O)cc1)C(=O)NCC(=O)N[C@@H](C)C(=O)N1CCC[C@H]1C(=O)N[C@@H](CO)C(N)=O)[C@@H](C)CC [GIHDILKYGAPS]
MIC [1]: > 50 µM | MIC [2]: ≥ 50 µM | MIC [3]: 10 µM (≈ 12.7 µg/mL) | MIC [4]: 15 µM (≈ 19 µg/mL) | MIC [5]: 20 µM (≈ 25.4 µg/mL)

Compound: CC[C@H](C)[C@H](NC(=O)CN)C(=O)NCC(=O)N[C@@H](CCCCN)C(=O)N[C@@H](Cc1ccccc1)C(=O)N[C@@H](CC(C)C)C(=O)N[C@@H](Cc1cnc[nH]1)C(=O)N[C@@H](CO)C(=O)N[C@@H](C)C(=O)N[C@@H](CCCCN)C(=O)N[C@@H](CCCCN)C(=O)N[C@@H](Cc1ccccc1)C(=O)NCC(=O)N[C@@H](CCCCN)C(=O)N[C@@H](C)C(=O)N[C@@H](C)C(=O)N[C@H](C(=O)NCC(=O)N[C@@H](CCC(=O)O)C(=O)N[C@H](C(=O)N[C@@H](CCSC)C(=O)N[C@@H](CC(N)=O)C(=O)N[C@@H](CO)C(=O)O)[C@@H](C)CC)C(C)C [GIGKFLHSAKKFGKAAVGEIMNS]
MIC [21]: ≥ 128 µM | MIC [22]: 16 µM (≈ 38.3 µg/mL) | MIC [23]: 4 µM (≈ 9.56 µg/mL) | MIC [24]: ≥ 128 µM

Compound: CC[C@H](C)[C@H](NC(=O)[C@H](CC(C)C)NC(=O)[C@H](CCCCN)NC(=O)[C@H](CCCCN)NC(=O)[C@H](CC(C)C)NC(=O)[C@H](CCCN=C(N)N)NC(=O)[C@H](CCCCN)NC(=O)[C@@H](N)Cc1ccccc1)C(=O)N[C@@H](CO)C(=O)N[C@@H](Cc1c[nH]c2ccccc12)C(=O)N[C@H](C(=O)N[C@@H](CCCCN)C(=O)N[C@@H](CCCN=C(N)N)C(=O)N[C@@H](CCCCN)C(=O)N[C@@H](CCCN=C(N)N)C(=O)N[C@@H](CCC(N)=O)C(=O)N[C@@H](CCC(N)=O)C(N)=O)[C@@H](C)CC [FKRLKKLISWIKRKRQQ]
MIC [31]: 2 µM (≈ 4.51 µg/mL) | MIC [39]: 2 µM (≈ 4.51 µg/mL) | MIC [40]: 16 µM (≈ 36.1 µg/mL) | MIC [41]: 1.41 µM (≈ 3.19 µg/mL) | MIC [26]: 1 µM (≈ 2.26 µg/mL) | MIC [42]: 4 µM (≈ 9.02 µg/mL) | MIC [43]: 2.83 µM (≈ 6.38 µg/mL) | MIC [44]: 8 µM (≈ 18 µg/mL) | MIC [45]: 1 µM (≈ 2.26 µg/mL) | MIC [38]: 1 µM (≈ 2.26 µg/mL) | MIC [46]: 16 µM (≈ 36.1 µg/mL) | MIC [47]: 1.41 µM (≈ 3.19 µg/mL) | MIC [48]: 1.41 µM (≈ 3.19 µg/mL) | MIC [49]: 2.83 µM (≈ 6.38 µg/mL) | MIC [50]: 1.41 µM (≈ 3.19 µg/mL) | MIC [51]: 1.41 µM (≈ 3.19 µg/mL) | MIC [52]: 2 µM (≈ 4.51 µg/mL)

Further lines, results first:

MIC [6]: 5.37 µM (≈ 7.99 µg/mL) | MIC [7]: 4.5 µM and 4.48 µM and 6.27 µM | MIC [8]: 2.69 µM (≈ 4 µg/mL) | MIC [9]: 25.1 µM and 50.2 µM | MIC [10]: 10.7 µM and 4.03 µM and 8.06 µM | MIC [11]: 2.69 µM (≈ 4 µg/mL) | MIC [12]: 2.47 µM and 4.92 µM | MIC [13]: 5.37 µM (≈ 7.99 µg/mL) | MIC [14]: 5.37 µM (≈ 7.99 µg/mL) | MIC [15]: 2.02 µM and 3.14 µM | MIC [16]: 2.69 µM (≈ 4 µg/mL) | MIC [17]: 2.69 µM and 3.14 µM and 6.27 µM | MIC [18]: 3.14 µM and 4.92 µM | MIC [5]: 7.17 µM and 14.3 µM | MIC [19]: 10.7 µM and 21.5 µM | MIC [20]: 5.37 µM and 10.7 µM
Compound: CC(C)C[C@H](NC(=O)CN)C(=O)N[C@@H](CC(C)C)C(=O)N[C@@H](Cc1c[nH]c2ccccc12)C(=O)N[C@@H](Cc1cnc[nH]1)C(=O)N[C@@H](CC(C)C)C(=O)N[C@@H](CC(C)C)C(=O)N[C@@H](Cc1cnc[nH]1)C(=O)N[C@@H](Cc1cnc[nH]1)C(=O)N[C@@H](CC(C)C)C(=O)N[C@@H](CC(C)C)C(=O)N[C@@H](Cc1cnc[nH]1)C(N)=O [GLLWHLLHHLLH]

MIC [25]: 3.12 µM (≈ 6.52 µg/mL) | MIC [26]: 6.25 µM (≈ 13.1 µg/mL) | MIC [27]: 0.19 µM (≈ 0.397 µg/mL) | MIC [28]: 3.12 µM (≈ 6.52 µg/mL) | MIC [29]: 2.21 µM (≈ 4.61 µg/mL) | MIC [30]: 12.5 µM (≈ 26.1 µg/mL)
Compound: CC[C@H](C)[C@H](NC(=O)CNC(=O)[C@@H](NC(=O)[C@H](CCCCN)NC(=O)[C@H](CCCCN)NC(=O)[C@H](Cc1ccccc1)NC(=O)[C@H](CC(C)C)NC(=O)[C@H](CCCCN)NC(=O)[C@H](Cc1c[nH]c2ccccc12)NC(=O)[C@@H](N)CCCCN)[C@@H](C)CC)C(=O)NCC(=O)N[C@@H](CCCCN)C(=O)N[C@@H](Cc1ccccc1)C(=O)N[C@@H](CC(C)C)C(=O)N[C@@H](CCCCN)C(=O)N[C@@H](CCCCN)C(=O)N[C@@H](CCCCN)C(N)=O [KWKLFKKIGIGKFLKKK]

MIC [31]: 12.5 µM (≈ 25 µg/mL) | MIC [32]: 3.13 µM (≈ 6.25 µg/mL) | MIC [33]: 6.26 µM (≈ 12.5 µg/mL) | MIC [34]: 1.57 µM (≈ 3.14 µg/mL) | MIC [35]: 6.26 µM (≈ 12.5 µg/mL) | MIC [36]: 12.5 µM (≈ 25 µg/mL) | MIC [37]: 6.26 µM (≈ 12.5 µg/mL) | MIC [38]: 6.26 µM (≈ 12.5 µg/mL)
Compound: CC[C@H](C)[C@H](NC(=O)[C@H](Cc1c[nH]c2ccccc12)NC(=O)[C@@H](N)CCSC)C(=O)N[C@H](C(=O)N[C@@H](CC(N)=O)C(=O)NCC(=O)NCC(=O)N[C@H](C(=O)N[C@@H](C)C(=O)N[C@@H](CC(N)=O)C(=O)N[C@@H](Cc1c[nH]c2ccccc12)C(=O)N[C@@H](Cc1ccc(O)cc1)C(=O)N[C@@H](Cc1ccccc1)C(=O)N[C@H](C(=O)N[C@@H](CC(C)C)C(=O)N[C@@H](C)C(=O)N[C@@H](CCCN=C(N)N)C(=O)O)C(C)C)C(C)C)[C@@H](C)O [MWITNGGVANWYFVLAR]

— DBAASP
